Assay results: PubChem BioAssay (NCI)
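Dose response: 5 concentrations. Exposure: 48 h. Format: 96-well plates. Endpoint: linear interpolation; highest concentration if not reached. The concentration for full growth arrest is given as TGI.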

Legend:
Experiment in all cases: DTP human tumour cell line panel, 48 h
OVCAR-8 ovarian = system: OVCAR-8 ovarian
SNB-78 CNS = system: SNB-78 CNS
786-0 renal = system: 786-0 renal
SNB-19 CNS = system: SNB-19 CNS
CAKI-1 renal = system: CAKI-1 renal
RXF-631 renal = system: RXF-631 renal
SF-295 CNS = system: SF-295 CNS
IGROV1 ovarian = system: IGROV1 ovarian
DMS 273 small cell lung = system: DMS 273 small cell lung
COLO 205 colon = system: COLO 205 colon
NCI-H23 lung = system: NCI-H23 lung
OVCAR-4 ovarian = system: OVCAR-4 ovarian
DMS 114 small cell lung = system: DMS 114 small cell lung
UACC-257 melanoma = system: UACC-257 melanoma
SK-MEL-5 melanoma = system: SK-MEL-5 melanoma
U251 CNS = system: U251 CNS
XF 498 CNS = system: XF 498 CNS
UACC-62 melanoma = system: UACC-62 melanoma
HT29 colon = system: HT29 colon
SNB-75 CNS = system: SNB-75 CNS
NCI-H460 lung = system: NCI-H460 lung
OVCAR-3 ovarian = system: OVCAR-3 ovarian
HCC-2998 colon = system: HCC-2998 colon
HCT-15 colon = system: HCT-15 colon
SN12C renal = system: SN12C renal
ACHN renal = system: ACHN renal
DLD-1 colon = system: DLD-1 colon
SK-MEL-28 melanoma = system: SK-MEL-28 melanoma
SF-539 CNS = system: SF-539 CNS
A549 NSCLC = system: A549 NSCLC
M14 melanoma = system: M14 melanoma
EKVX NSCLC = system: EKVX NSCLC
HOP-62 NSCLC = system: HOP-62 NSCLC
A498 renal = system: A498 renal
TK-10 renal = system: TK-10 renal
SW-620 colon = system: SW-620 colon
LXFL 529 NSCLC = system: LXFL 529 NSCLC
M19-MEL melanoma = system: M19-MEL melanoma
SK-OV-3 ovarian = system: SK-OV-3 ovarian
HOP-18 NSCLC = system: HOP-18 NSCLC
RXF 393 renal = system: RXF 393 renal
KM20L2 colon = system: KM20L2 colon
LOX IMVI melanoma = system: LOX IMVI melanoma
HCT-116 colon = system: HCT-116 colon
CCRF-CEM leukemia = system: CCRF-CEM leukemia
NCI-H226 lung = system: NCI-H226 lung
SK-MEL-2 melanoma = system: SK-MEL-2 melanoma
OVCAR-5 ovarian = system: OVCAR-5 ovarian
HL-60(TB) leukemia = system: HL-60(TB) leukemia
UO-31 renal = system: UO-31 renal
MALME-3M melanoma = system: MALME-3M melanoma
SF-268 CNS = system: SF-268 CNS
HOP-92 NSCLC = system: HOP-92 NSCLC
NCI-H522 lung = system: NCI-H522 lung
K-562 leukemia = system: K-562 leukemia

Measured: TGI

COc1ccc2c3c(coc13)C(CCC(=O)O)CC2 (stereo not drawn)
not listed: CCRF-CEM leukemia | NCI-H226 lung | SK-MEL-2 melanoma | OVCAR-5 ovarian | HL-60(TB) leukemia | UO-31 renal | MALME-3M melanoma | SF-268 CNS | HOP-92 NSCLC | NCI-H522 lung | K-562 leukemia
> 100 µM: all other assays above

CCOC(=O)CCn1[nH]c(=O)c(Cl)c(Cl)c1=O
not listed: SF-539 CNS
> 100 µM: all other assays above
